According to patent US20210346385A1, “TASTE-MASKED DOSAGE FORMS” (MSB Holdings, Inc, priority 2018, published 2021):

Test: Dissolving time of the troche
Assay type: physicochemical
[1] = ingredient in troche of Example 4f
[2] = ingredient in troche of Example 4i
[3] = ingredient in troche of Example 4j
[4] = ingredient in troche of Example 4k
[5] = ingredient in troche of Example 4l
[6] = ingredient in troche of Example 4m
[7] = ingredient in troche of Example 4n
[8] = ingredient in troche of Example 4o (ButterCream)
[9] = ingredient in troche of Example 4o (Vanilla, Marshmallow)
[10] = ingredient in troche of Example 4p
[11] = ingredient in troche of Example 4c, troche with silica, acacia and Winterfresh
[12] = ingredient in troche of Example 42
[13] = ingredient in troche of Example 4h
[14] = ingredient in troche of Example 4d, troche with Alpha agent, silica, acacia, cherry

CC1=CC(=O)NS(=O)(=O)O1 [Acesulfame]
Dissolving time: remark for the single ingredient [1]: No effect | Dissolving time: remark for the single ingredient [2]: No effect | Dissolving time: remark for the single ingredient [3]: No effect | Dissolving time: remark for the single ingredient [4]: No effect | Dissolving time: remark for the single ingredient [5]: No effect | Dissolving time: remark for the single ingredient [6]: No effect | Dissolving time: remark for the single ingredient [7]: No effect | Dissolving time: remark for the single ingredient [8]: No effect | Dissolving time: remark for the single ingredient [9]: No effect | Dissolving time: remark for the single ingredient [10]: No effect

CCCc1nn(C)c2c(=O)[nH]c(-c3cc(S(=O)(=O)N4CCN(C)CC4)ccc3OCC)nc12 [Sildenafil, reference compound]
Dissolving time: remark for the single ingredient [11]: No effect | Dissolving time: remark for the single ingredient (ingredient in troche of Example 4e): No effect | Dissolving time: remark for the single ingredient [1]: No effect | Dissolving time: remark for the single ingredient [2]: No effect | Dissolving time: remark for the single ingredient [3]: No effect | Dissolving time: remark for the single ingredient [4]: No effect | Dissolving time: remark for the single ingredient [5]: No effect | Dissolving time: remark for the single ingredient [6]: No effect | Dissolving time: remark for the single ingredient [7]: No effect | Dissolving time: remark for the single ingredient [8]: No effect | Dissolving time: remark for the single ingredient [9]: No effect | Dissolving time: remark for the single ingredient [10]: No effect | Dissolving time: remark for the single ingredient [12]: No effect | Dissolving time: remark for the single ingredient [13]: No effect | Dissolving time: remark for the single ingredient [14]: No effect

C=C1C[C@@]23CC[C@H]4[C@@](C)(CCC[C@@]4(C)C(=O)O)[C@@H]2CC[C@]1(O)C3 [Steviol]
Dissolving time: remark for the single ingredient [3]: No effect | Dissolving time: remark for the single ingredient [4]: No effect | Dissolving time: remark for the single ingredient [5]: No effect | Dissolving time: remark for the single ingredient [6]: No effect | Dissolving time: remark for the single ingredient [7]: No effect | Dissolving time: remark for the single ingredient [8]: No effect | Dissolving time: remark for the single ingredient [9]: No effect | Dissolving time: remark for the single ingredient [10]: No effect | Dissolving time: remark for the single ingredient [12]: No effect | Dissolving time: remark for the single ingredient [13]: No effect

Sugar
Dissolving time: remark for the single ingredient (ingredient in troche of Example 4b): Did Not Help | Dissolving time: remark for the single ingredient [11]: Did Not Help | Dissolving time: remark for the single ingredient [14]: No effect
